# Laboratory results taken from patent publication US20130209543A1, “ENHANCED TREATMENT REGIMENS USING MTOR INHIBITORS” (Intellikine LLC, priority 2011, published 2013).
# Experiment: Phase I clinical trial: safety, related treatment-emergent adverse events, patients n (%)
# Format: in vivo
# [1] = Total QW Dosing, N = 15, listed as Cpd A
# [2] = all 3 intermittent dosing regimens, n=35
# Description: Safety, maximum tolerated dose (MTD), pharmacokinetics (PK) and preliminary antitumor activity were evaluated.
# Pharmacodynamic (PD) endpoints were evaluated in surrogate (peripheral blood cells [PBCs], skin) and tumor tissues for the phosphorylation of TORC1-dependent markers (4EBP1/S6), and TORC2-dependent markers (AKT/PRAS40).
compound,measurement,setting,value
CC(C)n1nc(-c2ccc3oc(N)nc3c2)c2c(N)ncnc21 [compound A],Gastritis,"Total QDx3d QW, N = 14",0 (0%)
same,Gravitational oedema,"Total QDx3d QW, N = 14",0 (0%)
same,Hypocalcaemia,"Total QDx3d QW, N = 14",0 (0%)
same,Insomnia,"Total QDx3d QW, N = 14",0 (0%)
same,Malaise,"Total QDx3d QW, N = 14",0 (0%)
same,Nausea,"Total QDx3d QW, N = 14",0 (0%)
same,Oral discomfort,"Total QDx3d QW, N = 14",0 (0%)
same,Orthostatic hypotension,"Total QDx3d QW, N = 14",0 (0%)
same,Panniculitis,"Total QDx3d QW, N = 14",0 (0%)
same,Polyuria,"Total QDx3d QW, N = 14",0 (0%)
same,Rash,"Total QDx3d QW, N = 14",0 (0%)
same,Skin discolouration,"Total QDx3d QW, N = 14",0 (0%)
same,Skin exfoliation,"Total QDx3d QW, N = 14",0 (0%)
same,Urine tract infection,"Total QDx3d QW, N = 14",0 (0%)
same,Vomiting,"Total QDx3d QW, N = 14",0 (0%)
same,Weakness,"Total QDx3d QW, N = 14",0 (0%)
same,Weight decreased,"Total QDx3d QW, N = 14",0 (0%)
same,Catheter site inflammation,"Total QDx5d QW, N = 6",0 (0%)
same,Catheter site pain,"Total QDx5d QW, N = 6",0 (0%)
same,Coagulopathy,"Total QDx5d QW, N = 6",0 (0%)
same,Confusional state,"Total QDx5d QW, N = 6",0 (0%)
same,Cough,"Total QDx5d QW, N = 6",0 (0%)
same,Diarrhea,"Total QDx5d QW, N = 6",0 (0%)
same,Dizziness,"Total QDx5d QW, N = 6",0 (0%)
same,Dyspnoea exertional,"Total QDx5d QW, N = 6",0 (0%)
same,Eye infection,"Total QDx5d QW, N = 6",0 (0%)
same,Fatigue,"Total QDx5d QW, N = 6",0 (0%)
same,Gastritis,"Total QDx5d QW, N = 6",0 (0%)
same,Gravitational oedema,"Total QDx5d QW, N = 6",0 (0%)
same,Headache,"Total QDx5d QW, N = 6",0 (0%)
same,Hyperbilirubinaemia,"Total QDx5d QW, N = 6",0 (0%)
same,Hypertransaminasaemia,"Total QDx5d QW, N = 6",0 (0%)
same,Hypertriglyceridaemia,"Total QDx5d QW, N = 6",0 (0%)
same,Hypocalcaemia,"Total QDx5d QW, N = 6",0 (0%)
same,Hypomagnesaemia,"Total QDx5d QW, N = 6",0 (0%)
same,Hypotension,"Total QDx5d QW, N = 6",0 (0%)
same,Insomnia,"Total QDx5d QW, N = 6",0 (0%)
same,Low fever,"Total QDx5d QW, N = 6",0 (0%)
same,Malaise,"Total QDx5d QW, N = 6",0 (0%)
same,Nausea (second line),"Total QDx5d QW, N = 6",1 (17%)
same,Oral discomfort,"Total QDx5d QW, N = 6",0 (0%)
same,Orthostatic hypotension,"Total QDx5d QW, N = 6",0 (0%)
same,Palmar-plantar erythrodysaesthesia syndrome,"Total QDx5d QW, N = 6",0 (0%)
same,Panniculitis,"Total QDx5d QW, N = 6",0 (0%)
same,Platelet count decreased,"Total QDx5d QW, N = 6",0 (0%)
same,Polyuria,"Total QDx5d QW, N = 6",0 (0%)
same,Pyrexia,"Total QDx5d QW, N = 6",0 (0%)
same,Rash,"Total QDx5d QW, N = 6",0 (0%)
same,Rash macular,"Total QDx5d QW, N = 6",0 (0%)
same,Skin discolouration,"Total QDx5d QW, N = 6",0 (0%)
same,Skin exfoliation,"Total QDx5d QW, N = 6",0 (0%)
same,Urinary tract infection,"Total QDx5d QW, N = 6",0 (0%)
same,Weakness,"Total QDx5d QW, N = 6",0 (0%)
same,Weight decreased,"Total QDx5d QW, N = 6",0 (0%)
same,Aspartate aminotransferase increased,"Total QW Dosing, N = 15",2 (13%)
same,Asthenia,"Total QW Dosing, N = 15",2 (13%)
same,Catheter site inflammation,"Total QW Dosing, N = 15",0 (0%)
same,Catheter site pain,"Total QW Dosing, N = 15",0 (0%)
same,Coagulopathy,"Total QW Dosing, N = 15",0 (0%)
same,Confusional state,"Total QW Dosing, N = 15",0 (0%)
same,Cough,"Total QW Dosing, N = 15",0 (0%)
same,Diarrhoea,"Total QW Dosing, N = 15",3 (20%)
same,Dizziness,"Total QW Dosing, N = 15",0 (0%)
same,Dyspnoea exertional,"Total QW Dosing, N = 15",0 (0%)
same,Eye infection,"Total QW Dosing, N = 15",0 (0%)
same,Fatigue,"Total QW Dosing, N = 15",0 (0%)
same,Gastritis,"Total QW Dosing, N = 15",0 (0%)
same,Gravitational oedema,"Total QW Dosing, N = 15",0 (0%)
same,HYPERGLYCEMIA,"Total QW Dosing, N = 15",2 (13%)
same,Headache,"Total QW Dosing, N = 15",0 (0%)
same,Hyperbilirubinaemia,"Total QW Dosing, N = 15",0 (0%)
same,Hyperglycaemia,"Total QW Dosing, N = 15",5 (33%)
same,Hypertransaminasaemia,"Total QW Dosing, N = 15",0 (0%)
same,Hypertriglyceridaemia,"Total QW Dosing, N = 15",0 (0%)
same,Hypocalcaemia,"Total QW Dosing, N = 15",0 (0%)
same,Hypomagnesaemia,"Total QW Dosing, N = 15",0 (0%)
same,Hypotension,"Total QW Dosing, N = 15",0 (0%)
same,Insomnia,"Total QW Dosing, N = 15",0 (0%)
same,Low fever,"Total QW Dosing, N = 15",0 (0%)
same,Mucosal inflammation,"Total QW Dosing, N = 15",3 (20%)
same,Nausea,"Total QW Dosing, N = 15",0 (0%)
same,Orthostatic hypotension,"Total QW Dosing, N = 15",0 (0%)
same,Palmar-plantar erythrodysaesthesia syndrome,"Total QW Dosing, N = 15",0 (0%)
same,Panniculitis,"Total QW Dosing, N = 15",0 (0%)
same,Patients Reporting at Least One Related TEAE,"Total QW Dosing, N = 15",13 (87%)
same,Platelet count decreased,"Total QW Dosing, N = 15",0 (0%)
same,Polyuria,"Total QW Dosing, N = 15",0 (0%)
same,Pyrexia,"Total QW Dosing, N = 15",0 (0%)
same,Rash macular,"Total QW Dosing, N = 15",0 (0%)
same,Skin discolouration,"Total QW Dosing, N = 15",0 (0%)
same,Skin exfoliation,"Total QW Dosing, N = 15",0 (0%)
same,Urinary tract infection,"Total QW Dosing, N = 15",0 (0%)
same,Urine tract infection,"Total QW Dosing, N = 15",0 (0%)
same,Vomiting,"Total QW Dosing, N = 15",0 (0%)
same,Weight decreased,"Total QW Dosing, N = 15",0 (0%)
same,Nausea,[1],10 (67%)
same,Vomiting,[1],5 (33%)
same,Catheter site inflammation,"Total, N = 60",1 (2%)
same,Catheter site pain,"Total, N = 60",1 (2%)
same,Coagulopathy,"Total, N = 60",1 (2%)
same,Confusional state,"Total, N = 60",1 (2%)
same,Cough,"Total, N = 60",1 (2%)
same,Diarrhea,"Total, N = 60",1 (2%)
same,Dizziness,"Total, N = 60",1 (2%)
same,Dyspnoea exertional,"Total, N = 60",1 (2%)
same,Eye infection,"Total, N = 60",1 (2%)
same,Fatigue,"Total, N = 60",1 (2%)
same,Gastritis,"Total, N = 60",1 (2%)
same,Gravitational oedema,"Total, N = 60",1 (2%)
same,Headache,"Total, N = 60",1 (2%)
same,Hyperbilirubinaemia,"Total, N = 60",1 (2%)
same,Hypertransaminasaemia,"Total, N = 60",1 (2%)
same,Hypertriglyceridaemia,"Total, N = 60",1 (2%)
same,Hypocalcaemia,"Total, N = 60",1 (2%)
same,Hypomagnesaemia,"Total, N = 60",1 (2%)
same,Hypotension,"Total, N = 60",1 (2%)
same,Insomnia,"Total, N = 60",1 (2%)
same,Low fever,"Total, N = 60",1 (2%)
same,Malaise,"Total, N = 60",1 (2%)
same,Nausea,"Total, N = 60",1 (2%)
same,Oral discomfort,"Total, N = 60",1 (2%)
same,Orthostatic hypotension,"Total, N = 60",1 (2%)
same,Palmar-plantar erythrodysaesthesia syndrome,"Total, N = 60",1 (2%)
same,Panniculitis,"Total, N = 60",1 (2%)
same,Platelet count decreased,"Total, N = 60",1 (2%)
same,Polyuria,"Total, N = 60",1 (2%)
same,Pyrexia,"Total, N = 60",1 (2%)
same,Rash,"Total, N = 60",1 (2%)
same,Rash macular,"Total, N = 60",1 (2%)
same,Skin discolouration,"Total, N = 60",1 (2%)
same,Skin exfoliation,"Total, N = 60",1 (2%)
same,Urinary tract infection,"Total, N = 60",1 (2%)
same,Urine tract infection,"Total, N = 60",1 (2%)
same,Vomiting,"Total, N = 60",1 (2%)
same,Weakness,"Total, N = 60",1 (2%)
same,Weight decreased,"Total, N = 60",1 (2%)
same,AE possibly related: asthenia,[2],23%
same,AE possibly related: diarrhea,[2],20%
same,AE possibly related: hyperglycemia,[2],37%
same,AE possibly related: mucosal inflammation,[2],29%
same,AE possibly related: nausea,[2],51%
same,AE possibly related: rash,[2],23%
same,AE possibly related: vomiting,[2],26%
same,reversibility of adverse events,all AEs reported,reversible
same,grade of the majority of AEs possibly related,any regimen,Grade 1 or 2
